Measured values from patent US8178506B2, “Oligomeric compounds and compositions for use in modulation of small non-coding RNAs” (Regulus Therapeutics Inc., priority 2003, dated 2012).
In the oligonucleotide strings, read from the 5' end, every base follows the letter of its sugar. An asterisk marks phosphorothioate; unmarked linkages are phosphodiester. Other units and linkages are bracketed, terminal groups are in braces. A string of capitals states the bases alone. e = 2'-O-(2-methoxyethyl) (MOE); [5mC] = 5-methylcytosine; d = 2'-deoxy (DNA)

Each substance was assayed on T47D cells (assay: Caspase-3 activity assay (apoptosis) in T47D cells). Settings: T47D cells, 200 nM oligomeric compound, 48 hours; experiment of Table 10.
In the case of “328652 (eG*eG*e[5mC]*e[5mC]*eT*dA*dA*dT*dA*dT*d[5mC]*d[5mC]*d[5mC]*dT*dA*e[5mC]*e[5mC]*e[5mC]*e[5mC]*eA; antisense) [compound 328652]”, the “Fold Increase over UTC (caspase-3 activity, apoptosis)” value is reported as 1.2 fold.
“328694 (e[5mC]*eA*eA*eA*e[5mC]*dG*dG*dT*dA*dA*dG*dA*dT*dT*dT*eG*e[5mC]*eA*eG*eA; antisense) [compound 328694]” was tested, and the “Fold Increase over UTC (caspase-3 activity, apoptosis)” value was 0.8 fold.
With “328402 (antisense eT*eT*eG*eA*eA*d[5mC]*dT*d[5mC]*d[5mC]*dA*dT*dG*d[5mC]*d[5mC]*dA*e[5mC]*eA*eA*eG*eG) [compound 328402]” the “Fold Increase over UTC (caspase-3 activity, apoptosis)” value was 1.2 fold.
For “328385 (eA*eG*eT*eG*e[5mC]*dT*dA*dA*dT*dA*d[5mC]*dT*dT*d[5mC]*dT*eT*eT*e[5mC]*eA*eT; antisense) [compound 328385]”, the “Fold Increase over UTC (caspase-3 activity, apoptosis)” value was 0.9 fold.
With “328398 (antisense eG*e[5mC]*e[5mC]*eA*eT*dT*dG*dG*dG*dA*d[5mC]*d[5mC]*dT*dG*d[5mC]*eA*e[5mC]*eA*eG*e[5mC]) [compound 328398]” the “Fold Increase over UTC (caspase-3 activity, apoptosis)” value was 0.9 fold.
In the case of “328431 (antisense eA*e[5mC]*e[5mC]*eT*e[5mC]*dT*d[5mC]*dA*dG*dG*dA*dA*dG*dA*d[5mC]*eG*eG*eA*e[5mC]*eT) [compound 328431]”, the “Fold Increase over UTC (caspase-3 activity, apoptosis)” value is reported as 0.9 fold.

Same assay, conditions: T47D cells, 200 nM oligomeric compound, 48 hours; experiment of Table 11
For “328695 (eG*eG*eA*eT*eT*dT*dA*dA*dA*d[5mC]*dG*dG*dT*dA*dA*eA*e[5mC]*eA*eT*e[5mC]; antisense) [compound 328695]”, the “Fold Increase over UTC (caspase-3 activity, apoptosis)” value was 0.8 fold.
For “328390 (eG*eG*eA*eG*e[5mC]*d[5mC]*dT*dT*dG*d[5mC]*dG*d[5mC]*dT*d[5mC]*dA*eG*e[5mC]*eA*eT*eT; antisense) [compound 328390]”, the “Fold Increase over UTC (caspase-3 activity, apoptosis)” value was 0.9 fold.
With “328639 (eG*eA*e[5mC]*eT*eA*d[5mC]*dT*dG*dT*dT*dG*dA*dG*dA*dG*eG*eA*eA*e[5mC]*eA; antisense) [compound 328639]” the “Fold Increase over UTC (caspase-3 activity, apoptosis)” value was 0.8 fold.
For “328386 (eA*e[5mC]*e[5mC]*eT*eG*dT*dG*dT*dA*dA*d[5mC]*dA*dG*d[5mC]*d[5mC]*eG*eT*eG*eT*eA; antisense) [compound 328386]”, the “Fold Increase over UTC (caspase-3 activity, apoptosis)” value was 0.7 fold.
With “328407 (antisense eA*eA*eT*eG*eG*dA*dG*d[5mC]*d[5mC]*dA*dA*dG*dG*dT*dG*e[5mC]*eT*eG*e[5mC]*e[5mC]) [compound 328407]” the “Fold Increase over UTC (caspase-3 activity, apoptosis)” value was 1.2 fold.
For “328427 (antisense eG*eA*eT*eG*eT*d[5mC]*dA*d[5mC]*dT*dG*dA*dG*dG*dA*dA*eA*eT*e[5mC]*eA*e[5mC]) [compound 328427]”, the “Fold Increase over UTC (caspase-3 activity, apoptosis)” value was 0.8 fold.
“328376 (eT*e[5mC]*eA*e[5mC]*eA*dA*dT*d[5mC]*d[5mC]*d[5mC]*d[5mC]*dA*d[5mC]*d[5mC]*dA*eA*eA*e[5mC]*eT*e[5mC]; antisense) [compound 328376]” was tested, and the “Fold Increase over UTC (caspase-3 activity, apoptosis)” value was 0.7 fold.
With “328406 (antisense eA*eG*e[5mC]*eA*eA*dG*dT*d[5mC]*dT*dA*d[5mC]*dT*d[5mC]*d[5mC]*dT*e[5mC]*eA*eG*eG*eG) [compound 328406]” the “Fold Increase over UTC (caspase-3 activity, apoptosis)” value was 1.0 fold.
For “328411 (antisense eT*eA*e[5mC]*e[5mC]*eT*d[5mC]*dT*dG*d[5mC]*dA*dG*dT*dA*dT*dT*e[5mC]*eT*eA*e[5mC]*eA) [compound 328411]”, the “Fold Increase over UTC (caspase-3 activity, apoptosis)” value was 0.8 fold.
With “328653 (eG*eT*eG*eT*eT*d[5mC]*dA*dG*dA*dA*dA*d[5mC]*d[5mC]*d[5mC]*dA*eG*eG*e[5mC]*e[5mC]*e[5mC]; antisense) [compound 328653]” the “Fold Increase over UTC (caspase-3 activity, apoptosis)” value was 1.1 fold.
“328426 (antisense eG*eG*eT*eT*eG*dG*d[5mC]*d[5mC]*dG*d[5mC]*dA*dG*dA*d[5mC]*dT*e[5mC]*eG*eT*eA*e[5mC]) [compound 328426]” was tested, and the “Fold Increase over UTC (caspase-3 activity, apoptosis)” value was 1.3 fold.
“328637 (eG*eG*eT*eT*e[5mC]*d[5mC]*dT*dA*dA*dT*dT*dA*dA*dA*d[5mC]*eA*eA*e[5mC]*e[5mC]*e[5mC]; antisense) [compound 328637]” was tested, and the “Fold Increase over UTC (caspase-3 activity, apoptosis)” value was 1.0 fold.
With “328435 (antisense eT*e[5mC]*eT*eA*eA*dG*dG*dG*dG*dT*d[5mC]*dA*d[5mC]*dA*dG*eA*eA*eG*eG*eT) [compound 328435]” the “Fold Increase over UTC (caspase-3 activity, apoptosis)” value was 1.3 fold.

Same assay, conditions: T47D cells, 200 nM oligomeric compound, 48 hours; experiment of Table 12
With “328693 (eT*eT*eT*eG*eA*dT*dT*dT*dT*dA*dA*dT*dT*d[5mC]*d[5mC]*eA*eA*eA*e[5mC]*eT; antisense) [compound 328693]” the “Fold Increase over UTC (caspase-3 activity, apoptosis)” value was 1.0 fold.
In the case of “328430 (antisense e[5mC]*e[5mC]*eG*eG*e[5mC]*dT*dA*dT*dT*dG*dA*dG*dT*dT*dA*eT*eG*eT*eA*e[5mC]) [compound 328430]”, the “Fold Increase over UTC (caspase-3 activity, apoptosis)” value is reported as 1.3 fold.
In the case of “328690 (eG*e[5mC]*e[5mC]*eT*e[5mC]*d[5mC]*dT*dT*d[5mC]*dA*dT*dA*dT*dA*dT*eT*e[5mC]*eT*e[5mC]*eA; antisense) [compound 328690]”, the “Fold Increase over UTC (caspase-3 activity, apoptosis)” value is reported as 0.8 fold.
“328650 (eA*eA*eT*e[5mC]*e[5mC]*dA*dT*dT*dG*dA*dA*dG*dA*dG*dG*e[5mC]*eG*eA*eT*eT; antisense) [compound 328650]” was tested, and the “Fold Increase over UTC (caspase-3 activity, apoptosis)” value was 0.8 fold.
With “328379 (e[5mC]*eT*eG*eA*e[5mC]*dT*dG*dA*dG*dA*d[5mC]*dT*dG*dT*dT*e[5mC]*eA*e[5mC]*eA*eG; antisense) [compound 328379]” the “Fold Increase over UTC (caspase-3 activity, apoptosis)” value was 1.1 fold.
In the case of “328432 (antisense eG*eA*eG*e[5mC]*eA*dT*dG*d[5mC]*dA*dA*d[5mC]*dA*d[5mC]*dT*d[5mC]*eT*eG*eT*eG*e[5mC]) [compound 328432]”, the “Fold Increase over UTC (caspase-3 activity, apoptosis)” value is reported as 0.6 fold.
With “328418 (antisense eA*eG*eT*eG*eT*d[5mC]*dT*d[5mC]*dA*dT*d[5mC]*dG*d[5mC]*dA*dA*eA*e[5mC]*eT*eT*eA) [compound 328418]” the “Fold Increase over UTC (caspase-3 activity, apoptosis)” value was 1.0 fold.
In the case of “328412 (antisense eT*eT*eT*eA*e[5mC]*dT*d[5mC]*dA*dT*dA*d[5mC]*d[5mC]*dT*d[5mC]*dG*e[5mC]*eA*eA*e[5mC]*e[5mC]) [compound 328412]”, the “Fold Increase over UTC (caspase-3 activity, apoptosis)” value is reported as 1.2 fold.

Same assay, conditions: T47D cells, 200 nM, 48 hours, relative to untreated control
In the case of “328405 (antisense e[5mC]*eT*eG*eA*eA*d[5mC]*dA*dG*dG*dG*dT*dA*dA*dA*dA*eT*e[5mC]*eA*e[5mC]*eT) [compound 328405]”, the “Fold Increase over UTC (caspase activity)” value is reported as 1.0.
“328433 (antisense e[5mC]*e[5mC]*eT*e[5mC]*e[5mC]*dT*dT*dG*dT*dG*dG*dG*d[5mC]*dA*dA*eA*eA*eT*e[5mC]*e[5mC]) [compound 328433]” was tested, and the “Fold Increase over UTC (caspase activity)” value was 1.0.
With “328371 (eT*e[5mC]*e[5mC]*eA*eT*dA*dG*d[5mC]*dT*dT*dA*dG*d[5mC]*dA*dG*eG*eT*e[5mC]*e[5mC]*eA; antisense) [compound 328371]” the “Fold Increase over UTC (caspase activity)” value was 1.2.
In the case of “328416 (antisense eA*e[5mC]*eA*eT*eT*dG*d[5mC]*dT*dA*dT*d[5mC]*dA*dT*dA*dA*eG*eA*eG*e[5mC]*eT) [compound 328416]”, the “Fold Increase over UTC (caspase activity)” value is reported as 0.9.

Same assay, conditions: caspase assay, 200 nM; conclusion from Tables 9-12
For “SEQ ID NO 520: gapmer of Tables 9-12 having this SEQ ID NO (antisense eT*eA*e[5mC]*e[5mC]*eT*d[5mC]*dT*dG*d[5mC]*dA*dG*dT*dA*dT*dT*e[5mC]*eT*eA*e[5mC]*eA)”, the “apoptosis in T47D cells” value was “prevent or have a protective effect from apoptosis”.
In the case of “SEQ ID NO 522: gapmer of Tables 9-12 having this SEQ ID NO (antisense eA*eA*eT*eT*eG*dT*dA*dT*dG*dA*d[5mC]*dA*dT*dT*dA*eA*eA*eT*e[5mC]*eA)”, the “apoptosis in T47D cells” value is reported as “prevent or have a protective effect from apoptosis”.
With “TTGTATGGACATTTAAATCA (antisense; same sequence listed as MOE 5-10-5 gapmer and as uniform MOE, further chemistry not given here) [ISIS 328692]” the “apoptosis in T47D cells” value was “induce apoptosis”.
For “TACAATTTGGGAGTCCTGAA (antisense; same sequence listed as MOE 5-10-5 gapmer and as uniform MOE, further chemistry not given here) [ISIS 328689]”, the “apoptosis in T47D cells” value was “prevent or have a protective effect from apoptosis”.
“CAAACGGTAAGATTTGCAGA (antisense; same sequence listed as MOE 5-10-5 gapmer and as uniform MOE, further chemistry not given here) [ISIS 328694]” was tested, and the “apoptosis in T47D cells” value was “prevent or have a protective effect from apoptosis”.
“CCGAGGGTCTAACCCAGCCC (antisense; same sequence listed as MOE 5-10-5 gapmer and as uniform MOE, further chemistry not given here) [ISIS 328638]” was tested, and the “apoptosis in T47D cells” value was “prevent or have a protective effect from apoptosis”.
For “SEQ ID NO 495: gapmer of Tables 9-12 having this SEQ ID NO (antisense eA*e[5mC]*e[5mC]*eT*eG*dT*dG*dT*dA*dA*d[5mC]*dA*dG*d[5mC]*d[5mC]*eG*eT*eG*eT*eA)”, the “apoptosis in T47D cells” value was “prevent or have a protective effect from apoptosis”.
For “GACTACTGTTGAGAGGAACA (antisense; same sequence listed as MOE 5-10-5 gapmer and as uniform MOE, further chemistry not given here) [ISIS 328639]”, the “apoptosis in T47D cells” value was “prevent or have a protective effect from apoptosis”.
In the case of “SEQ ID NO 532: gapmer of Tables 9-12 having this SEQ ID NO (antisense e[5mC]*e[5mC]*eA*e[5mC]*eA*dT*dA*dT*dA*d[5mC]*dA*dT*dA*dT*dA*eT*eA*e[5mC]*eG*e[5mC])”, the “apoptosis in T47D cells” value is reported as “prevent or have a protective effect from apoptosis”.
In the case of “SEQ ID NO 535: gapmer of Tables 9-12 having this SEQ ID NO (antisense eG*eG*eT*eT*eG*dG*d[5mC]*d[5mC]*dG*d[5mC]*dA*dG*dA*d[5mC]*dT*e[5mC]*eG*eT*eA*e[5mC])”, the “apoptosis in T47D cells” value is reported as “induce apoptosis”.
